{
  "source": "patent US20120065196A1",
  "about": "“AMIDE COMPOUNDS” (priority 2006, published 2012)",
  "target": "T1, human DGAT1 (Homo sapiens, UniProt O75907)",
  "T1 construct": "(N); made in house; host or cells: Sf9 insect cells infected with recombinant baculovirus BAC-DGAT1; microsome fraction",
  "T1 sequence (O75907 1-488)": "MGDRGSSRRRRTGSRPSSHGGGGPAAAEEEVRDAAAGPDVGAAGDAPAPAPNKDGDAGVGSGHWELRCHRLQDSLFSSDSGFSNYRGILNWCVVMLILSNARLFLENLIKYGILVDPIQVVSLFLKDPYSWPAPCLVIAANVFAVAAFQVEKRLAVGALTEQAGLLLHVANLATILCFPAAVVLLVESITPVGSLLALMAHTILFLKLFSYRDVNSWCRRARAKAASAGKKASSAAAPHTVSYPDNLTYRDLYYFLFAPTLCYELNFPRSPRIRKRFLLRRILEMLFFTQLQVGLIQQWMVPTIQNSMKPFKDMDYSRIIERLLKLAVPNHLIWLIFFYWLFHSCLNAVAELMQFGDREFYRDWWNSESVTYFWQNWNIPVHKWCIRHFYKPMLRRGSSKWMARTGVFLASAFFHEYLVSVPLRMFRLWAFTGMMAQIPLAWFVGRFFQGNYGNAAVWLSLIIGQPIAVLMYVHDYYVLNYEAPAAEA",
  "experiment": "Determination of DGAT inhibitory activity (triglyceride synthesis with DGAT1 high expression Sf9 microsome)",
  "format": "biochemical",
  "details": "25 μM dioleoylglycerol, 25 μM [14C]-Oleoyl-CoA, 32° C., 20 min, read-out: hDGAT1 IC50",
  "description": "Human DGAT1 gene was cloned by PCR using human adipocyte cDNA (Clontech, QUICK-Clone cDNA, human fat cell, cat #637220) as a template and, based on the DGAT1 gene information reported by Case, S. et al. (Proc. Natl. Acad. Sci. U.S.A. 95 (22), 13018-13023 (1998)), a nucleotide sequence (245-1711 of Genbank Accession No. NM_012079) encoding DGAT1 was amplified with the following PCR primer. The primer nucleotide sequence is shown below.\nThe PCR reaction was conducted using a KOD-plus kit (TOYOBO). The obtained PCR product was electrophoresed on agarose gel (1%), the DNA fragment amplified by PCR was recovered from the gel, and then digested with restriction enzymes EcoRI and SpeI. The DNA treated with the restriction enzymes was electrophoresed on agarose gel (1%), and the obtained DNA fragment was recovered and ligated with plasmid pFASTBAC1 (Invitrogen) digested with restriction enzymes EcoRI and SpeI to give expression plasmid pFB-DGAT1. The nucleotide sequence of the inserted fragment was confirmed and found to be identical with the nucleotide sequence of DGAT1 (245-1711 of Genbank Accession No. NM_012079). Furthermore, using BAC-TO-BAC Baculovirus Expression System (Invitrogen), recombinant baculovirus BAC-DGAT1 was prepared.\nSF9 cells were sown at 1×10^6 cells/ml on Sf-900II SFM medium (1 L, Invitrogen) containing 10% fetal calf serum (Trace), 50 mg/L gentamicin (Invitrogen) and 0.1% Pluronic F-68 (Invitrogen), and shaking culture was performed using a 2 L volume Erlenmeyer flask at 27° C., 100 rpm. After culturing for 24 hrs, recombinant baculovirus BAC-DGAT1 (6.7 mL) was added, and the mixture was further cultured for 3 days. The culture medium was centrifuged at 2,000 rpm for 5 min to give virus-infected cells. The infected cells were washed with a phosphate buffered saline (Invitrogen), centrifuged under the same conditions, and the cells were preserved at −80° C. The cryopreserved cells were thawed in ice, suspended in buffer A (50 mM Tris buffer (30 mL, pH 7.4) containing 20% glycerol, 0.15 M NaCl) supplemented with Complete Protease Inhibitor (Boehringer), and ruptured 3 times with a Polytron homogenizer (Kinematica) at 20,000 rpm for 30 sec. The Sf9 microsome fractions were obtained by a conventional method and cryopreserved at −80° C. as a DGAT1 high expression Sf9 microsome.\nAs a DGAT1 reaction buffer, a solution having a composition of 100 mM Tris-HCl (pH 7.5), 250 mM sucrose, 150 mM MgCl2, 0.01% bovine serum albumin (BSA) was used. Using this buffer, a given concentration of the test compound and a composition (100 μl) of 25 μM dioleoylglycerol, 25 μM [^14C]-Oleoyl-CoA, 5 μg protein/ml DGAT1 high expression Sf9 microsome, and 1% acetone were subjected to a triglyceride synthesis reaction at 32° C. for 20 min. A mixture of 300 μL of chloroform:methanol (=1:2) was added to the reaction mixture to quench the reaction. The reaction mixture was sufficiently mixed and distilled water (200 μL) was added to partition the mixture between a chloroform layer (lower layer) and an aqueous layer (upper layer). The chloroform layer (50 μL) was spotted on a thin layer chromatography silica gel plate (TLC plate, Merck) and developed with a solvent (n-hexane:diethyl ether:ethyl acetate:acetic acid=255:30:15:0.6). The developed TLC plate was dried, contacted with a BAS imaging plate (manufactured by FUJIFILM) and measured with BAS2500 (manufactured by FUJIFILM) 16 hr later to numerically show the amount of [^14C]-triglyceride (TG amount) produced during the reaction. The inhibitory rate was calculated by the following formula:\nInhibitory rate (%)=(1−(TG amount with addition of test compound−blank TG amount)/(control TG amount−blank TG amount))×100 […]",
  "data": [
    {"smiles": "CC(C)c1nnc([C@H]2CC[C@H](C(=O)NCCNC(=O)c3cn(-c4ccccc4)nc3C(F)(F)F)N(C)C2)o1", "note": "(relative stereo) [Example E267, trans-5-(5-isopropyl-1,3,4-oxadiazol-2-yl)-1-methyl-N-(2-(1-phenyl-3-(trifluoromethyl)-1H-pyrazole-4-carboxamido)ethyl)piperidine-2-carboxamide]", "values": [
      {"measurement": "IC50", "value": "100 to 1000", "unit": "nM"}
    ]},
    {"smiles": "CCCC1CCN(C(=O)NCCNC(=O)c2cn(-c3ccccc3)nc2C(F)(F)F)CC1", "note": "[Example E15, N-(2-(1-phenyl-3-(trifluoromethyl)-1H-pyrazole-4-carboxamido)ethyl)-4-propylpiperidine-1-carboxamide]", "values": [
      {"measurement": "IC50", "value": "10 to 100", "unit": "nM"}
    ]},
    {"smiles": "O=C(NCCNC(=O)C1CCN(S(=O)(=O)c2ccccc2)CC1)c1cn(-c2ccccc2)nc1C(F)(F)F", "note": "[Example E34, N-(2-(1-phenyl-3-(trifluoromethyl)-1H-pyrazole-4-carboxamido)ethyl)-1-(phenylsulfonyl)piperidine-4-carboxamide]", "values": [
      {"measurement": "IC50", "value": "10 to 100", "unit": "nM"}
    ]},
    {"smiles": "O=C(NCCNC(=O)N1CCC(C(=O)N2CCCC2)CC1)c1cn(-c2ccccc2)nc1C(F)(F)F", "note": "[Example E63, N-(2-(1-phenyl-3-(trifluoromethyl)-1H-pyrazole-4-carboxamido)ethyl)-4-(pyrrolidine-1-carbonyl)piperidine-1-carboxamide]", "values": [
      {"measurement": "IC50", "value": "100 to 1000", "unit": "nM"}
    ]},
    {"smiles": "CC1CN(C(=O)NCCNC(=O)c2cn(-c3ccccc3)nc2C(F)(F)F)CCN1c1ccccc1", "note": "(centres unmarked) [Example E64, 3-methyl-4-phenyl-N-(2-(1-phenyl-3-(trifluoromethyl)-1H-pyrazole-4-carboxamido)ethyl)piperazine-1-carboxamide]", "values": [
      {"measurement": "IC50", "value": "10 to 100", "unit": "nM"}
    ]},
    {"smiles": "O=C(NCCNC(=O)[C@H]1CC[C@H](C(=O)c2ccccc2)CC1)c1cn(-c2ccccc2)nc1C(F)(F)F", "note": "[Example E65, N-(2-(trans-4-benzoylcyclohexanecarboxamido)ethyl)-1-phenyl-3-(trifluoromethyl)-1H-pyrazole-4-carboxamide]", "values": [
      {"measurement": "IC50", "value": "10 to 100", "unit": "nM"}
    ]},
    {"smiles": "O=C(NCCNC(=O)C1CCN(S(=O)(=O)c2cccnc2)CC1)c1cn(-c2ccccc2)nc1C(F)(F)F", "note": "[Example E74, N-(2-(1-phenyl-3-(trifluoromethyl)-1H-pyrazole-4-carboxamido)ethyl)-1-(pyridin-3-ylsulfonyl)piperidine-4-carboxamide]", "values": [
      {"measurement": "IC50", "value": "10 to 100", "unit": "nM"}
    ]},
    {"smiles": "O=C(N[C@H]1CC[C@H](C(=O)NCCNC(=O)c2cn(-c3ccccc3)nc2C(F)(F)F)CC1)c1ccccc1", "note": "[Example E91, N-(2-(trans-4-Benzamidocyclohexanecarboxamido)ethyl)-1-phenyl-3-(trifluoromethyl)-1H-pyrazole-4-carboxamide]", "values": [
      {"measurement": "IC50", "value": "100 to 1000", "unit": "nM"}
    ]},
    {"smiles": "O=C(NCCNC(=O)N1CCc2nc[nH]c2C1)c1cn(-c2ccccc2)nc1C(F)(F)F", "note": "[Example E95, N-(2-(1-phenyl-3-(trifluoromethyl)-1H-pyrazole-4-carboxamido)ethyl)-6,7-dihydro-3H-imidazo[4,5-c]pyridine-5(4H)-carboxamide]", "values": [
      {"measurement": "IC50", "value": "100 to 1000", "unit": "nM"}
    ]},
    {"smiles": "O=C(NCCNC(=O)N1CCC(c2nc(-c3cccnc3)no2)CC1)c1cn(-c2ccccc2)nc1C(F)(F)F", "note": "[Example E101, N-(2-(1-phenyl-3-(trifluoromethyl)-1H-pyrazole-4-carboxamido)ethyl)-4-(3-(pyridin-3-yl)-1,2,4-oxadiazol-5-yl)piperidine-1-carboxamide]", "values": [
      {"measurement": "IC50", "value": "10 to 100", "unit": "nM"}
    ]},
    {"smiles": "O=C(NCCNC(=O)C1CCC(c2ccccc2)CC1)c1cn(-c2ccccc2)nc1C(F)(F)F", "note": "(centres unmarked) [Example E105, 1-phenyl-N-(2-(4-phenylcyclohexanecarboxamido)ethyl)-3-(trifluoromethyl)-1H-pyrazole-4-carboxamide]", "values": [
      {"measurement": "IC50", "value": "< 10", "unit": "nM"}
    ]},
    {"smiles": "O=C(NCCNC(=O)N1CCC(NS(=O)(=O)c2ccccc2)CC1)c1cn(-c2ccccc2)nc1C(F)(F)F", "note": "[Example E114, N-(2-(1-Phenyl-3-(trifluoromethyl)-1H-pyrazole-4-carboxamido)ethyl)-4-(phenylsulfonamido)piperidine-1-carboxamide]", "values": [
      {"measurement": "IC50", "value": "100 to 1000", "unit": "nM"}
    ]},
    {"smiles": "CC(C)CN(C)C(=O)[C@H]1CC[C@H](C(=O)NCCNC(=O)c2cn(-c3ccccc3)nc2C(F)(F)F)CC1", "note": "[Example E126, trans-N1-isobutyl-N-1-methyl-N4-(2-(1-phenyl-3-(trifluoromethyl)-1H-pyrazole-4-carboxamido)ethyl)cyclohexane-1,4-dicarboxamide]", "values": [
      {"measurement": "IC50", "value": "10 to 100", "unit": "nM"}
    ]},
    {"smiles": "O=C(NCCNC(=O)[C@H]1CC[C@H](C(=O)c2ccccc2)CC1)c1cn(-c2ccccn2)nc1C(F)(F)F", "note": "[Example E150, N-(2-(trans-4-benzoylcyclohexanecarboxamido)ethyl)-1-(pyridin-2-yl)-3-(trifluoromethyl)-1H-pyrazole-4-carboxamide]", "values": [
      {"measurement": "IC50", "value": "< 10", "unit": "nM"}
    ]},
    {"smiles": "O=C(NCCNC(=O)[C@H]1CC[C@H](c2nc(C3CC3)no2)CC1)c1cn(-c2ccccc2)nc1C(F)(F)F", "note": "[Example E151, N-(2-(trans-4-(3-Cyclopropyl-1,2,4-oxadiazol-5-yl)cyclohexanecarboxamido)ethyl)-1-phenyl-3-(trifluoromethyl)-1H-pyrazole-4-carboxamide]", "values": [
      {"measurement": "IC50", "value": "10 to 100", "unit": "nM"}
    ]},
    {"smiles": "CC(C)c1nnc([C@H]2CC[C@H](C(=O)NCCNC(=O)c3cn(-c4ccccc4)nc3C(F)(F)F)CC2)o1", "note": "[Example E163, N-(2-(trans-4-(5-isopropyl-1,3,4-oxadiazol-2-yl)cyclohexanecarboxamido)ethyl)-1-phenyl-3-(trifluoromethyl)-1H-pyrazole-4-carboxamide]", "values": [
      {"measurement": "IC50", "value": "10 to 100", "unit": "nM"}
    ]},
    {"smiles": "O=C(NCCNC(=O)[C@H]1CC[C@H](C(=O)c2ccccc2)CC1)c1cn(-c2ccccc2Cl)nc1C(F)(F)F", "note": "[Example E164, N-(2-(trans-4-benzoylcyclohexanecarboxamido)ethyl)-1-(2-chlorophenyl)-3-(trifluoromethyl)-1H-pyrazole-4-carboxamide]", "values": [
      {"measurement": "IC50", "value": "10 to 100", "unit": "nM"}
    ]},
    {"smiles": "O=C(NCCNC(=O)[C@H]1CC[C@H](C(=O)NCCF)CC1)c1cn(-c2ccccc2)nc1C(F)(F)F", "note": "[Example E165, trans-N1-(2-fluoroethyl)-N4-(2-(1-phenyl-3-(trifluoromethyl)-1H-pyrazole-4-carboxamido)ethyl)cyclohexane-1,4-dicarboxamide]", "values": [
      {"measurement": "IC50", "value": "100 to 1000", "unit": "nM"}
    ]},
    {"smiles": "O=C(NCCNC(=O)[C@H]1CC[C@H](c2nc(-c3ccccc3)c[nH]2)CC1)c1cn(-c2ccccc2)nc1C(F)(F)F", "note": "[Example E172, 1-Phenyl-N-(2-(trans-4-(4-phenyl-1H-imidazol-2-yl)cyclohexanecarboxamido)ethyl)-3-(trifluoromethyl)-1H-pyrazole-4-carboxamide]", "values": [
      {"measurement": "IC50", "value": "100 to 1000", "unit": "nM"}
    ]},
    {"smiles": "O=C(NCCNC(=O)C1CCc2nc(-c3ccccc3)sc2C1)c1cn(-c2ccccc2)nc1C(F)(F)F", "note": "(centres unmarked) [Example E175, 2-phenyl-N-(2-(1-phenyl-3-(trifluoromethyl)-1H-pyrazole-4-carboxamido)ethyl)-4,5,6,7-tetrahydrobenzo[d]thiazole-6-carboxamide]", "values": [
      {"measurement": "IC50", "value": "10 to 100", "unit": "nM"}
    ]}
  ]
}
